Residue numbers refer to the chain shown, from its start.
Experiments:
Test in all cases: transactivation assay (GAL4 chimeric receptor, luciferase) in CV-1 cells
Format in all cases: cell-based
Human PPAR-α = target: T1, Human PPAR-α (Homo sapiens, UniProt Q07869); details: for Emax: CV-1, Relative Response % to maximum effects of the positive control drug, read-out: Max % Human PPAR-α; for EC50: CV-1 cells, GAL4 chimeric receptor, 24 hours
T1 construct: expressed in transfected cells; host or cells: CV-1 (CCL-70, ATCC)
T1 sequence (Q07869 239-466 limits assumed): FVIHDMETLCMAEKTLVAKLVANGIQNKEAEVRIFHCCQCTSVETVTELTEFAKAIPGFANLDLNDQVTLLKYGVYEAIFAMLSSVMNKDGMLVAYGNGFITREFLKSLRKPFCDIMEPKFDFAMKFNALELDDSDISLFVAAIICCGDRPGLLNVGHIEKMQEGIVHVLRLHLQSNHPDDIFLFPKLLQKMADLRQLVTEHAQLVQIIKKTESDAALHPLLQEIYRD
Experimental: (§1) Following induction of transient intracellular expression of PPAR-α and -γ, an ability of the inventive compounds to induce transactivation of PPARs via activation of each PPAR was evaluated as an efficacy of the compound (transactivation assay).
(§2) For this assay, the African green monkey kidney cell line CV-1 (CCL-70, ATCC) was used as a test cell line, and PPAR-α and -γ were murine- and human-derived PPARs. Samples used were compounds prepared in Examples 19, 21, 23, 25, 26, 27, 31, 33, 34, 36, 38, 40, 42, 43 and 50. As a positive control drug, 3-4-[2-(2-phenyl-4-methyl-1,3-oxazole)ethyloxy]phenyl-(2S)-[(1-methyl-3-oxo-3-phenyl)propenyl]aminopropionic acid was used that is a PPAR-α or -γ agonist which was once under development and whose clinical trials and studies were suspended at phase III. A chimeric receptor was adopted to circumvent the probable interference due to endogenous receptor activation (Jian-Shen Q. et al., Mol Cell Biol (1995) 15(3):1817-1825). The chimeric receptor was constructed as a fusion of a PPAR-α or -γ ligand-binding domain with a DNA-binding domain of GAL4 which is a yeast transactivator.
(§3) The CV-1 cells were transiently transfected with each of chimeric receptor-expressing DNA constructs and each of DNA constructs comprising 5 copies of the GAL4 DNA-binding domain and capable of inducing expression of firefly luciferase or Renilla luciferase using a Lipofectamine Plus reagent (Invitrogen, USA). After transfection for 3 hours, the culture media were replaced with DMEM containing the above samples and 10% fetal bovine serum. 24 hours later, the firefly luciferase activity and Renilla luciferase activity were continuously assayed while adding an equal amount of a dual luciferase assay reagent (Promega, USA) to the cell-containing media. The transfection efficiency was normalized against Renilla luciferase activity (Motomura W. et al., Int J Cancer (2004) 108(1):41-6). The PPAR-α and -γ activity was determined by calculating Relative Response % to maximum effects of the positive control drug, and conducting multiple dose evaluation of the inventive compounds to calculate EC50, which is the concentration of a drug which produces 50% activation relative to maximum effects of the inventive compounds, by nonlinear regression analysis.

Human PPAR-γ = target: T2, Human PPAR-γ (Homo sapiens, UniProt P37231); details: for Emax: CV-1, Relative Response % to maximum effects of the positive control drug, read-out: Max % Human PPAR-γ; for EC50: CV-1 cells, GAL4 chimeric receptor, 24 hours
T2 construct: expressed in transfected cells; host or cells: CV-1 (CCL-70, ATCC)
T2 sequence (P37231 238-503 limits assumed): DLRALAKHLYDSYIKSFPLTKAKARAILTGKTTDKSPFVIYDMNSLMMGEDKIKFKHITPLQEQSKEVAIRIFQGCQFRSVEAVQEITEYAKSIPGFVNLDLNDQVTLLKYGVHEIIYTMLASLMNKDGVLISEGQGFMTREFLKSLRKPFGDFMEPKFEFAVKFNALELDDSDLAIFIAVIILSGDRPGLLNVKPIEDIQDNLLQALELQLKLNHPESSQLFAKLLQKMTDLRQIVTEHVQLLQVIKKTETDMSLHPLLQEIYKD
Experimental: as §1, §2, §3

Mouse PPAR-α = target: T3, Mouse PPAR-α (Mus musculus, UniProt P23204); details: for Emax: CV-1, Relative Response % to maximum effects of the positive control drug, read-out: Max % Mouse PPAR-α; for EC50: CV-1 cells, GAL4 chimeric receptor, 24 hours
T3 construct: expressed in transfected cells; host or cells: CV-1 (CCL-70, ATCC)
T3 sequence (P23204 239-466 limits assumed): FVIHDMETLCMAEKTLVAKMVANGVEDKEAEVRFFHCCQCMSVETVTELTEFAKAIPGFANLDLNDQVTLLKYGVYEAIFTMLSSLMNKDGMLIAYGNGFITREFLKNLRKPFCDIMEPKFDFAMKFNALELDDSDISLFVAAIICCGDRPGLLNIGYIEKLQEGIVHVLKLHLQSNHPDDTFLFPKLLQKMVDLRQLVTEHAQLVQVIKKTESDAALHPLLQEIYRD
Experimental: as §1, §2, §3

Mouse PPAR-γ = target: T4, Mouse PPAR-γ (Mus musculus, UniProt P37238); details: for Emax: CV-1, Relative Response % to maximum effects of the positive control drug, read-out: Max % Mouse PPAR-γ; for EC50: CV-1 cells, GAL4 chimeric receptor, 24 hours
T4 construct: expressed in transfected cells; host or cells: CV-1 (CCL-70, ATCC)
T4 sequence (P37238 238-503 limits assumed): T2 sequence (P37231 238-503 limits assumed) with S93N, V98I, S146N, L226V, Q245H
Experimental: as §1, §2, §3

Row | SMILES | Emax (Human PPAR-α) | EC50 (Human PPAR-α) | Emax (Human PPAR-γ) | EC50 (Human PPAR-γ) | Emax (Mouse PPAR-α) | Emax (Mouse PPAR-γ) | EC50 (Mouse PPAR-γ) | EC50 (Mouse PPAR-α)
1 | CCO[C@@H](Cc1ccc(OCc2sc(-c3ccc(C(=O)N4CCOCC4)cc3)cc2C)cc1)C(=O)O [Example 17, (S)-2-ethoxy-3-(4-((3-methyl-5-(4-(morpholino-4-carbonyl)phenyl)thiophen-2-yl)methoxy)phenyl)propionic acid] | 12% | 3210 nM | 47% | 1270 nM | 11% | 117% | 14500 nM | –
2 | CCO[C@@H](Cc1ccc(OCc2sc(-c3ccc(C4=NCCCO4)cc3)cc2C)cc1)C(=O)O [Example 19, (S)-3-(4-((5-(4-(5,6-dihydro-4H-1,3-oxazin-2-yl)phenyl)-3-methylthiophen-2-yl)methoxy)phenyl)-2-ethoxypropionic acid] | 44% | 6570 nM | 43% | 45 nM | 19% | 43% | 281 nM | 6830 nM
3 | CCO[C@@H](Cc1ccc(OCc2sc(-c3ccc(C4=Nc5ccccc5OC4)cc3)cc2C)cc1)C(=O)O [Example 23, (S)-3-(4-((5-(4-(2H-benzo[b][1,4]oxazin-3-yl)phenyl)-3-methylthiophen-2-yl)methoxy)phenyl)-2-ethoxypropionic acid] | 44% | 2010 nM | 83% | 65 nM | 43% | 67% | 165 nM | 105 nM
4 | CCO[C@@H](Cc1ccc(OCc2sc(-c3ccc(-c4csnn4)cc3)cc2C)cc1)C(=O)O [Example 24, (S)-3-(4-((5-(4-(1,2,3-thiadiazol-4-yl)phenyl)-3-methylthiophen-2-yl)methoxy)phenyl)-2-ethoxypropionic acid] | 19% | 1400 nM | 45% | 32 nM | 23% | 38% | 84 nM | 4930 nM
5 | CCO[C@@H](Cc1ccc(OCc2sc(-c3ccc(-c4noc(C)n4)cc3)cc2C)cc1)C(=O)O [Example 25, (S)-2-ethoxy-3-(4-((3-methyl-5-(4-(5-methyl-1,2,4-oxadiazol-3-yl)phenyl)thiophen-2-yl)methoxy)phenyl)propionic acid] | 63% | 5240 nM | 48% | 95 nM | 35% | 48% | 295 nM | 443 nM
6 | CCO[C@@H](Cc1ccc(OCc2sc(-c3ccc(-c4nnn(C)n4)cc3)cc2C)cc1)C(=O)O [Example 29, (S)-2-ethoxy-3-(4-((3-methyl-5-(4-(2-methyl-2H-tetrazol-5-yl)phenyl)thiophen-2-yl)methoxy)phenyl)propionic acid] | 52% | 1230 nM | 66% | 49 nM | 31% | 48% | 118 nM | 381 nM
7 | CCO[C@@H](Cc1ccc(OCc2sc(-c3ccc(-c4nnn(C(C)C)n4)cc3)cc2C)cc1)C(=O)O [Example 31, (S)-2-ethoxy-3-(4-((5-(4-(2-isopropyl-2H-tetrazol-5-yl)phenyl)-3-methylthiophen-2-yl)methoxy)phenyl)propionic acid] | 21% | 478 nM | 25% | 100 nM | 10% | 23% | 57 nM | 3090 nM
8 | CCO[C@@H](Cc1ccc(OCc2sc(-c3ccc(-c4nc(C)c(C)o4)cc3)cc2C)cc1)C(=O)O [Example 34, (S)-3-(4-((5-(4-(4,5-dimethyloxazol-2-yl)phenyl)-3-methylthiophen-2-yl)methoxy)phenyl)-2-ethoxypropionic acid] | 31% | 476 nM | 75% | 18 nM | 31% | 81% | 176 nM | 3440 nM
9 | CCO[C@@H](Cc1ccc(OCc2sc(-c3ccc(-c4cc(C(=O)NC)no4)cc3)cc2C)cc1)C(=O)O [Example 38, (S)-2-ethoxy-3-(4-((3-methyl-5-(4-(3-(methylcarbamoyl)isoxazol-5-yl)phenyl)thiophen-2-yl)methoxy)phenyl)propionic acid] | 51% | 5140 nM | 68% | 100 nM | 49% | 81% | 180 nM | 5780 nM
10 | CCO[C@@H](Cc1ccc(OCc2sc(-c3ccc(-c4cc(COC)no4)cc3)cc2C)cc1)C(=O)O [Example 40, (S)-2-ethoxy-3-(4-((5-(4-(3-(methoxymethyl)isoxazol-5-yl)phenyl)-3-methylthiophen-2-yl)methoxy)phenyl)propionic acid] | 7% | – | 31% | 19 nM | 5% | 30% | 109 nM | –
11 | CCO[C@@H](Cc1ccc(OCc2sc(-c3ccc(-c4cc(C)no4)cc3)nc2C)cc1)C(=O)O [Example 47, (S)-2-ethoxy-3-(4-((4-methyl-2-(4-(3-methylisoxazol-5-yl)phenyl)thiazol-5-yl)methoxy)phenyl)propionic acid] | 60% | 1410 nM | 50% | 82 nM | 71% | 70% | 208 nM | 560 nM
